Data reported in the supplement of paper PMC10307832.

Columns and labels:
Test in all cases: relative viability (nuclei count vs DMSO), 5 days (fraction); higher = more cells survive
[1] = system: LXF-289
Procedure, shortened: (§1)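 Lung cancer cell lines in 1536-well plates got either a single drug or a fixed anchor-drug dose together with five library-drug doses (not always all listed) in √10 steps, by pin tool, on the day after seeding. Nuclei were counted after 5 days, and relative viability is the treated-to-vehicle ratio of nuclei counts. Values are medians of duplicate plates.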

[2] = system: NCI-H3122
Procedure, shortened: as §1

[3] = system: NCI-H838
Procedure, shortened: as §1

[4] = system: NCI-H1666
Procedure, shortened: as §1

[5] = system: NCI-H2170
Procedure, shortened: as §1

[6] = system: NCI-H358
Procedure, shortened: as §1

[7] = system: ABC-1
Procedure, shortened: as §1

[8] = system: BEN
Procedure, shortened: as §1

[9] = system: EKVX
Procedure, shortened: as §1

[10] = system: NCI-H23
Procedure, shortened: as §1

[11] = system: SK-MES-1
Procedure, shortened: as §1

[12] = system: NCI-H520
Procedure, shortened: as §1

[13] = system: LU99A
Procedure, shortened: as §1

[14] = system: NCI-H727
Procedure, shortened: as §1

[15] = system: NCI-H322M
Procedure, shortened: as §1

[16] = system: HOP-62
Procedure, shortened: as §1

[17] = system: HCC-827
Procedure, shortened: as §1

[18] = system: EPLC-272H
Procedure, shortened: as §1

[19] = system: UMC-11
Procedure, shortened: as §1

[20] = system: NCI-H2405
Procedure, shortened: as §1

[21] = system: NCI-H1975
Procedure, shortened: as §1

## COCC1(CO)C(=O)C2CCN1CC2 (stereo unspecified) [PRIMA-1MET] + Cc1cc(Nc2cc(N3CCN(C)CC3)nc(Sc3ccc(NC(=O)C4CC4)cc3)n2)n[nH]1 [Tozasertib] (partner 0.1 µM)
[1]; first compound 0.2 µM
  relative viability: 0.217
[1]; first compound 0.6325 µM
  relative viability: 0.173
[1]; first compound 2 µM
  relative viability: 0.16
[1]; first compound 6.325 µM
  relative viability: 0.175
[1]; first compound 20 µM
  relative viability: 0.192
[2]; first compound 0.2 µM
  relative viability: 0.524
[2]; first compound 0.6325 µM
  relative viability: 0.361
[2]; first compound 6.325 µM
  relative viability: 0.388
[2]; first compound 20 µM
  relative viability: 0.337
[3]; first compound 0.2 µM
  relative viability: 0.291
[3]; first compound 0.6325 µM
  relative viability: 0.286
[3]; first compound 2 µM
  relative viability: 0.245
[3]; first compound 6.325 µM
  relative viability: 0.293
[3]; first compound 20 µM
  relative viability: 0.194
[4]; first compound 0.2 µM
  relative viability: 0.592
[4]; first compound 0.6325 µM
  relative viability: 0.601
[4]; first compound 2 µM
  relative viability: 0.66
[4]; first compound 6.325 µM
  relative viability: 0.554
[4]; first compound 20 µM
  relative viability: 0.388
[5]; first compound 0.2 µM
  relative viability: 0.9
[5]; first compound 0.6325 µM
  relative viability: 0.671
[5]; first compound 2 µM
  relative viability: 0.677
[5]; first compound 6.325 µM
  relative viability: 0.722
[5]; first compound 20 µM
  relative viability: 0.678
[6]; first compound 0.2 µM
  relative viability: 0.105
[6]; first compound 2 µM
  relative viability: 0.098
[6]; first compound 6.325 µM
  relative viability: 0.117
[6]; first compound 20 µM
  relative viability: 0.0866
[7]; first compound 0.2 µM
  relative viability: 0.243
[7]; first compound 0.6325 µM
  relative viability: 0.188
[7]; first compound 2 µM
  relative viability: 0.17
[7]; first compound 6.325 µM
  relative viability: 0.145
[7]; first compound 20 µM
  relative viability: 0.259
[8]; first compound 0.2 µM
  relative viability: 0.504
[8]; first compound 0.6325 µM
  relative viability: 0.473
[8]; first compound 6.325 µM
  relative viability: 0.501
[8]; first compound 20 µM
  relative viability: 0.538
[9]; first compound 0.2 µM
  relative viability: 0.452
[9]; first compound 0.6325 µM
  relative viability: 0.357
[9]; first compound 6.325 µM
  relative viability: 0.397
[9]; first compound 20 µM
  relative viability: 0.366
[10]; first compound 0.2 µM
  relative viability: 0.507
[10]; first compound 0.6325 µM
  relative viability: 0.312
[10]; first compound 2 µM
  relative viability: 0.371
[10]; first compound 6.325 µM
  relative viability: 0.292
[10]; first compound 20 µM
  relative viability: 0.097
[11]; first compound 0.2 µM
  relative viability: 1.02
[11]; first compound 0.6325 µM
  relative viability: 0.888
[11]; first compound 2 µM
  relative viability: 0.962
[11]; first compound 6.325 µM
  relative viability: 0.876
[11]; first compound 20 µM
  relative viability: 0.907
[12]; first compound 0.2 µM
  relative viability: 0.402
[12]; first compound 0.6325 µM
  relative viability: 0.416
[12]; first compound 6.325 µM
  relative viability: 0.384
[12]; first compound 20 µM
  relative viability: 0.236
[13]; first compound 0.2 µM
  relative viability: 0.282
[13]; first compound 0.6325 µM
  relative viability: 0.268
[13]; first compound 2 µM
  relative viability: 0.277
[13]; first compound 6.325 µM
  relative viability: 0.284
[13]; first compound 20 µM
  relative viability: 0.0311
[14]; first compound 0.2 µM
  relative viability: 0.549
[14]; first compound 0.6325 µM
  relative viability: 0.543
[14]; first compound 2 µM
  relative viability: 0.643
[14]; first compound 6.325 µM
  relative viability: 0.487
[14]; first compound 20 µM
  relative viability: 0.293
[15]; first compound 0.2 µM
  relative viability: 0.515
[15]; first compound 0.6325 µM
  relative viability: 0.523
[15]; first compound 6.325 µM
  relative viability: 0.504
[15]; first compound 20 µM
  relative viability: 0.286
[16]; first compound 0.2 µM
  relative viability: 0.426
[16]; first compound 0.6325 µM
  relative viability: 0.341
[16]; first compound 2 µM
  relative viability: 0.38
[16]; first compound 6.325 µM
  relative viability: 0.383
[16]; first compound 20 µM
  relative viability: 0.305
[17]; first compound 0.2 µM
  relative viability: 0.424
[17]; first compound 0.6325 µM
  relative viability: 0.387
[17]; first compound 2 µM
  relative viability: 0.376
[17]; first compound 6.325 µM
  relative viability: 0.399
[17]; first compound 20 µM
  relative viability: 0.379
[18]; first compound 2 µM
  relative viability: 0.186
[18]; first compound 6.325 µM
  relative viability: 0.196
[18]; first compound 20 µM
  relative viability: 0.105
[19]; first compound 0.2 µM
  relative viability: 0.215
[19]; first compound 0.6325 µM
  relative viability: 0.183
[19]; first compound 2 µM
  relative viability: 0.195
[19]; first compound 6.325 µM
  relative viability: 0.193
[19]; first compound 20 µM
  relative viability: 0.201
[20]; first compound 0.2 µM
  relative viability: 0.735
[20]; first compound 0.6325 µM
  relative viability: 0.812
[20]; first compound 6.325 µM
  relative viability: 0.667
[20]; first compound 20 µM
  relative viability: 0.329
[21]; first compound 0.2 µM
  relative viability: 1.05
[21]; first compound 0.6325 µM
  relative viability: 0.726
[21]; first compound 2 µM
  relative viability: 0.878
[21]; first compound 6.325 µM
  relative viability: 0.738
[21]; first compound 20 µM
  relative viability: 0.454
